Experimental data as given in patent publication US20070203158A1, “Fungicidal Mixtures” (BASF AKTIENGESELLSCHAFT, priority 2004, published 2007).

Tested on: Plasmopara viticola
Assay: Activity against peronospora of grapevines caused by Plasmopara viticola (protective spray on potted vines)
Assay type: in vivo
Conditions: individual active compound, untreated control 89% infection
Experimental: The active compounds, separately or jointly, were prepared as a stock solution comprising 0.25% by weight of active compound in acetone or DMSO. 1% by weight of the emulsifier Uniperol® EL (wetting agent having emulsifying and dispersant action based on ethoxylated alkylphenols) was added to this solution, and the mixture was diluted with water to the desired concentration.
Leaves of potted vines were sprayed to runoff point with an aqueous suspension having the concentration of active compound stated below. The next day, the undersides of the leaves were inoculated with an aqueous sporangia suspension of Plasmopara viticola. The grapevines were then initially placed in a water-vapor-saturated chamber at 24° C. for 48 hours and then in a greenhouse at 20-30° C. for 5 days. After this period of time, the plants were again placed in a humid chamber for 16 hours to promote sporangiophore eruption. The extent of the development of the disease on the undersides of the leaves was then determined visually.
The visually determined percentages of infected leaf areas were converted into efficacies in % of the untreated control:
The efficacy (E) is calculated as follows using Abbot's formula: E=(1−α/β)·100 • α corresponds to the fungicidal infection of the treated plants in % and • β corresponds to the fungicidal infection of the untreated (control) plants in %
An efficacy of 0 means that the infection level of the treated plants corresponds to that of the untreated control plants; an efficacy of 100 means that the treated plants are not infected.
The expected efficacies of mixtures of active compounds were determined using Colby's formula (Colby, S. R. “Calculating synergistic and antagonistic responses of herbicide combinations”, Weeds, 15, 20-22, 1967) and compared with the observed efficacies.
Colby's formula: E=x+y−x·y/100 • E expected efficacy, expressed in % of the untreated control, when using the mixture of the active compounds A and B at the concentrations a and b • x efficacy, expressed in % of the untreated control, when using the active compound A at the concentration a
y efficacy, expressed in % of the untreated control, when using the active compound B at the concentration b

SMILES	Efficacy in % of the untreated control (1 ppm in the spray liquor) [%]	Efficacy in % of the untreated control (4 ppm in the spray liquor) [%]
CC1CCN(c2c(-c3c(F)cc(F)cc3F)c(Cl)nc3ncnn23)CC1 [compound I, 5-chloro-7-(4-methylpiperidin-1-yl)-6-(2,4,6-trifluorophenyl)-[1,2,4]tri-azolo[1,5-a]pyrimidine]	0	33
CO/C=C(/C(=O)OC)c1ccccc1COc1cccc(C(F)(F)F)n1 [compound II, methyl 3-methoxy-2-[2-(6-trifluoromethylpyridin-2-yloxymethyl)phenyl]acrylate]	33	66
